{"source": "paper PMC4710668", "about": "“Bioactivation of food genotoxicants 5-hydroxymethylfurfural and furfuryl alcohol by sulfotransferases from human, mouse and rat: a comparative study” (Archives of Toxicology, 2014)", "experiment_in_all_cases": "HMF sulfoconjugation assay", "assay_type_in_all_cases": "biochemical", "key": {"rSult2b1": {"molecular_target": "T1, rSult2b1 (Rattus norvegicus, UniProt Q29YR5)", "T1 construct": "made in house; host or cells: Salmonella typhimurium TA1538 (cytosolic fraction, enzyme not purified)", "T1 sequence (Q29YR5 1-340)": "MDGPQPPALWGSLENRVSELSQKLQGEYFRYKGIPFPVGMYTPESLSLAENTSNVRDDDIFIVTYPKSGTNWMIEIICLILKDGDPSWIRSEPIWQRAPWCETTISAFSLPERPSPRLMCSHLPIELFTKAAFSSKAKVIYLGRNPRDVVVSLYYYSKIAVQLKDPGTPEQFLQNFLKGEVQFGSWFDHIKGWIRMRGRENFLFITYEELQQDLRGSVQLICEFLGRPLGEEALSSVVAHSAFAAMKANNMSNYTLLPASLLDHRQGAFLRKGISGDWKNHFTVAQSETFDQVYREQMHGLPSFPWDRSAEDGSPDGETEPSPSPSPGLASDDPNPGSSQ", "description": "(§1) Cytosolic fractions containing individual SULT forms were prepared from transgenic S. typhimurium TA1538. Table S1 in the Supplementary Material provides a summary of the thirty SULTs used in the current study together with references describing the cloning of the respective S. typhimurium TA1538 strains. The expressed SULT forms are denoted with the prefixes h, m and r for human, mouse and rat enzymes, respectively. Bacteria were grown in Luria Broth medium containing ampicillin (100 µg/ml) by stirring for 8 h at 200 revolutions/min at 37 °C. The bacterial suspensions were centrifuged at 5,000 g for 10 min. The sediments were washed twice with 25 ml of 10 mM potassium phosphate buffer (pH 7.4)/50 mM potassium chloride (KCP buffer) and centrifuged again. The pellets were taken up in 800 µl KCP buffer and sonicated thrice for 15 s with 30 s pauses in between. The soluble fraction was attained by centrifuging for 1 h at 100,000 g. The supernatants (in the following termed cytosolic preparations) were frozen at −80 °C. The protein concentrations were determined according to a bicinchoninic acid (BCA) assay protocol. The SULT concentrations in the cytosolic preparations were estimated after electrophoretic separation and immunodetection using inclusion bodies of different SULT forms as standards (Teubner et al. [2007]). The preparation of SULT inclusion bodies and the immunodetection of SULTs is described in the Supplementary Material, which also contains a representative immunoblot of different amounts of rSult1a1standard and a cytosolic preparation of S. typhimurium expressing rSult1a1 (Fig. S1).\n(§2) The reactions were conducted in mixtures of 100 µl containing 25–200 µg protein, 50 mM potassium phosphate buffer (pH 7.4), 5 mM MgCl2, 50 µM PAPS and different concentrations of HMF at 37 °C. Preliminary experiments ensured that measurements were recorded under ‘linear’ conditions, i.e., doubling of protein concentration or incubation time was doubling the amount of sulfate ester formed. The reactions were stopped after 30 min by adding 300 µl ice-cold 2-propanol, mixed and centrifuged at 15,000 g for 10 min.\n(§3) SMF concentrations of the clear supernatants were analyzed by UPLC-MS/MS. The protocol was adapted from the quantification of SMF in plasma samples of HMF-treated mice (Monien et al. [2009]). In short, the supernatants were analyzed using a UPLC system (Waters) connected to a Quattro Premier XE tandem quadrupole mass spectrometer (Waters) using the negative electrospray ionization mode. Samples of 4 µl were injected into a HSS T3 column (1.8 µm, 2.1 × 100 mm; Waters) and eluted with an isocratic flow of 0.35 ml/min 10 mM ammonium acetate/methanol (95:5). The fragmentation reactions of SMF yielding two principal ions, the sulfate ion radical (m/z = 204.9 → 96.0) and the protonated sulfonate ion (m/z = 204.9 → 81.0) were monitored. The tune parameters were as follows: temperature of the electrospray source 120 °C; desolvation temperature 475 °C; desolvation gas nitrogen (800 l/h); cone gas nitrogen (100 l/h); collision gas argon (indicated cell pressure ~5 × 10^−3 mbar). For the fragmentation of SMF, collision energies were 20 and 23 eV for the transitions m/z = 204.9 → 81.0 and m/z = 204.9 → 96.0, respectively. The dwell time was set to 100 ms, and capillary voltage was set to 0.35 kV. The cone and RF1 lens voltages were 32 and 0.2 V, respectively. SMF was quantified using an external calibration line that was linear in the concentration range of 1.0 nM (4 fmol/injection) to 2,500 (10 pmol/injection) SMF (r ^2 ≥ 0.99). Data acquisition and handling were performed with MassLynx 4.1 software (Waters). The limit of detection (LOD) for this technique of 2.5 nM SMF has been reported (Monien et al. [2009]). In the current study, this corresponds to 10 fmol SMF per injection or a reaction rate of 0.5 pmol SMF/mg/min."}, "rSult1c1": {"molecular_target": "T2, rSult1c1 (Rattus norvegicus, UniProt P50237)", "T2 construct": "made in house; host or cells: Salmonella typhimurium TA1538 (cytosolic fraction, enzyme not purified)", "T2 sequence (P50237 whole entry)": "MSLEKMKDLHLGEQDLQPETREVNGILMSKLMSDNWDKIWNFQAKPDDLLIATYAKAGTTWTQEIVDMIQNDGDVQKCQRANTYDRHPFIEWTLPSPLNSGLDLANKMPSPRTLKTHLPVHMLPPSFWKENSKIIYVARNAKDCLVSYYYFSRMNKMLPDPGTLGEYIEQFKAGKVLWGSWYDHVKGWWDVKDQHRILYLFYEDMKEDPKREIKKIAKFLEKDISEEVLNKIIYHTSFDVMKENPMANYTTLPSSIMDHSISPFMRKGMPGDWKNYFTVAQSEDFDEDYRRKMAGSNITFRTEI", "description": "as §1, §2, §3"}, "mSult1d1": {"molecular_target": "T3, mSult1d1 (Mus musculus, UniProt Q3UZZ6)", "T3 construct": "made in house; host or cells: Salmonella typhimurium TA1538 (cytosolic fraction, enzyme not purified)", "T3 sequence (Q3UZZ6 whole entry)": "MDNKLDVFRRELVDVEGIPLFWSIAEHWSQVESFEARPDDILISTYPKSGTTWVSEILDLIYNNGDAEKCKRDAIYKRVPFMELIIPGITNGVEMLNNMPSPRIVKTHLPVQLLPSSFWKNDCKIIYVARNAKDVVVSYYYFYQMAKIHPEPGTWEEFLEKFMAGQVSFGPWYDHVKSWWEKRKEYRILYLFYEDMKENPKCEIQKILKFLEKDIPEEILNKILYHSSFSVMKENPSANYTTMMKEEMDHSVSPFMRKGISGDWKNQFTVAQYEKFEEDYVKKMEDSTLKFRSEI", "description": "as §1, §2, §3"}, "hSULT4A1": {"molecular_target": "T4, hSULT4A1 (Homo sapiens, UniProt Q9BR01)", "T4 construct": "made in house; host or cells: Salmonella typhimurium TA1538 (cytosolic fraction, not purified)", "T4 sequence (Q9BR01 1-284)": "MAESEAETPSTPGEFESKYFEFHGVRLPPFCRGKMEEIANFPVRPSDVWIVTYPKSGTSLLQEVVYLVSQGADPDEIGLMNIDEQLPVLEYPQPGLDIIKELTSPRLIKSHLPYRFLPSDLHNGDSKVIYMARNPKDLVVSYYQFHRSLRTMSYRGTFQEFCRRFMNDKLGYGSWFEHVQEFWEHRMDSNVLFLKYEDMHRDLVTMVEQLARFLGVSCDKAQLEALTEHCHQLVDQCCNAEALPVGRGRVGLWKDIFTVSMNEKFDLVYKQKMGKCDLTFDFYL", "description": "as §1, §2, §3"}, "hSULT1A1": {"molecular_target": "T5, hSULT1A1 (Homo sapiens, UniProt P50225)", "T5 construct": "made in house; host or cells: Salmonella typhimurium TA1538 (cytosolic fraction, not purified)", "T5 sequence (P50225 whole entry)": "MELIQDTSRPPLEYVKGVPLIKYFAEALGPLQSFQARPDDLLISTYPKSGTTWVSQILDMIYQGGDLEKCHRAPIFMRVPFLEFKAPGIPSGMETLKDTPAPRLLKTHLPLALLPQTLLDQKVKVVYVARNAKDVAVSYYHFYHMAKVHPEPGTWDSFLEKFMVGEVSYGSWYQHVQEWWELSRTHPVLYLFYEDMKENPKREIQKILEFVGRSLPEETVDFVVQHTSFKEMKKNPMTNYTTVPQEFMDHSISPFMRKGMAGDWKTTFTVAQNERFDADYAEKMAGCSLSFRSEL", "description": "as §1, §2, §3"}, "hSULT1A2": {"molecular_target": "T6, hSULT1A2 (Homo sapiens, UniProt P50226)", "T6 construct": "made in house; host or cells: Salmonella typhimurium TA1538 (cytosolic fraction, not purified)", "T6 sequence (P50226 whole entry)": "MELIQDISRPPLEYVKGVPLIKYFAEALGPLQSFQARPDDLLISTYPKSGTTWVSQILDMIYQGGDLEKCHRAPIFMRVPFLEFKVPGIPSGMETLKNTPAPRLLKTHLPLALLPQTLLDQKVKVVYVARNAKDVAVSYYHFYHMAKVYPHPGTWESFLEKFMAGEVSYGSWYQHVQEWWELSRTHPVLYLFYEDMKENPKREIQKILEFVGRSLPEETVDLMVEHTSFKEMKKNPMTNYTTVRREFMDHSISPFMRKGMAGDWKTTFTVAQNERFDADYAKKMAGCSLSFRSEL", "description": "as §1, §2, §3"}, "[1]": {"settings": "HMF sulfoconjugation, Michaelis-Menten fit"}}, "data": [{"smiles": "O=Cc1ccc(CO)o1", "note": "[HMF, 5-Hydroxymethylfurfural]", "values": [{"measurement": "Rate of sulfoconjugation", "setting": "rSult2b1; 0.1 mM HMF", "result": "<0.5", "unit": "pmol/mg/min"}, {"measurement": "Rate of sulfoconjugation", "setting": "rSult2b1; 1 mM HMF", "result": "<0.5", "unit": "pmol/mg/min"}, {"measurement": "Rate of sulfoconjugation", "setting": "rSult2b1; 10 mM HMF", "result": "<0.5", "unit": "pmol/mg/min"}, {"measurement": "Rate of sulfoconjugation", "setting": "rSult2b1; 100 mM HMF", "result": "<0.5", "unit": "pmol/mg/min"}, {"measurement": "Rate of sulfoconjugation", "setting": "rSult1c1; 0.1 mM HMF", "result": "2.1 ± 1.3", "unit": "pmol/mg/min"}, {"measurement": "Rate of sulfoconjugation", "setting": "rSult1c1; 1 mM HMF", "result": "29.1 ± 9.0", "unit": "pmol/mg/min"}, {"measurement": "Rate of sulfoconjugation", "setting": "rSult1c1; 10 mM HMF", "result": "120 ± 39", "unit": "pmol/mg/min"}, {"measurement": "Rate of sulfoconjugation", "setting": "rSult1c1; 100 mM HMF", "result": "47.5 ± 27.3", "unit": "pmol/mg/min"}, {"measurement": "K M", "setting": "rSult1c1; HMF sulfoconjugation, extended Michaelis-Menten equation with substrate inhibition", "result": "18.4 ± 4.7", "unit": "mM"}, {"measurement": "Rate of sulfoconjugation", "setting": "mSult1d1; 0.1 mM HMF", "result": "124 ± 33", "unit": "pmol/mg/min"}, {"measurement": "Rate of sulfoconjugation", "setting": "mSult1d1; 1 mM HMF", "result": "1,160 ± 260 pmol/mg/min"}, {"measurement": "Rate of sulfoconjugation", "setting": "mSult1d1; 10 mM HMF", "result": "6,750 ± 1,190 pmol/mg/min"}, {"measurement": "Rate of sulfoconjugation", "setting": "mSult1d1; 100 mM HMF", "result": "22,400 ± 2,400 pmol/mg/min"}, {"measurement": "K M", "setting": "mSult1d1; [1]", "result": "31.9 ± 5.7", "unit": "mM"}, {"measurement": "Rate of sulfoconjugation", "setting": "hSULT4A1; 0.1 mM HMF", "result": "<0.5", "unit": "pmol/mg/min"}, {"measurement": "Rate of sulfoconjugation", "setting": "hSULT4A1; 1 mM HMF", "result": "<0.5", "unit": "pmol/mg/min"}, {"measurement": "Rate of sulfoconjugation", "setting": "hSULT4A1; 10 mM HMF", "result": "<0.5", "unit": "pmol/mg/min"}, {"measurement": "Rate of sulfoconjugation", "setting": "hSULT4A1; 100 mM HMF", "result": "<0.5", "unit": "pmol/mg/min"}, {"measurement": "ratio of HMF sulfoconjugation efficiency, hSULT1A1 vs hSULT1C2", "setting": "hSULT1A1", "result": "about 19 times"}, {"measurement": "Rate of sulfoconjugation", "setting": "hSULT1A1; 0.1 mM HMF", "result": "20.4 ± 2.8", "unit": "pmol/mg/min"}, {"measurement": "Rate of sulfoconjugation", "setting": "hSULT1A1; 1 mM HMF", "result": "171 ± 18", "unit": "pmol/mg/min"}, {"measurement": "Rate of sulfoconjugation", "setting": "hSULT1A1; 10 mM HMF", "result": "641 ± 100", "unit": "pmol/mg/min"}, {"measurement": "Rate of sulfoconjugation", "setting": "hSULT1A1; 100 mM HMF", "result": "699 ± 170", "unit": "pmol/mg/min"}, {"measurement": "K M", "setting": "hSULT1A1; [1]", "result": "3.2 ± 0.4", "unit": "mM"}, {"measurement": "Rate of sulfoconjugation", "setting": "hSULT1A2; 0.1 mM HMF", "result": "<0.5", "unit": "pmol/mg/min"}, {"measurement": "Rate of sulfoconjugation", "setting": "hSULT1A2; 1 mM HMF", "result": "15.2 ± 4.5", "unit": "pmol/mg/min"}, {"measurement": "Rate of sulfoconjugation", "setting": "hSULT1A2; 10 mM HMF", "result": "130 ± 53", "unit": "pmol/mg/min"}, {"measurement": "Rate of sulfoconjugation", "setting": "hSULT1A2; 100 mM HMF", "result": "628 ± 233", "unit": "pmol/mg/min"}, {"measurement": "K M", "setting": "hSULT1A2; [1]", "result": "56.5 ± 5.4", "unit": "mM"}]}]}
